{"source": "ChEMBL document CHEMBL3714749", "about": "“Quinoxaline derivatives as gpr6 modulators” (2014)"}
{"biological_target": "G-protein coupled receptor 6 (Homo sapiens, UniProt P46095)", "sequence (P46095 whole entry)": "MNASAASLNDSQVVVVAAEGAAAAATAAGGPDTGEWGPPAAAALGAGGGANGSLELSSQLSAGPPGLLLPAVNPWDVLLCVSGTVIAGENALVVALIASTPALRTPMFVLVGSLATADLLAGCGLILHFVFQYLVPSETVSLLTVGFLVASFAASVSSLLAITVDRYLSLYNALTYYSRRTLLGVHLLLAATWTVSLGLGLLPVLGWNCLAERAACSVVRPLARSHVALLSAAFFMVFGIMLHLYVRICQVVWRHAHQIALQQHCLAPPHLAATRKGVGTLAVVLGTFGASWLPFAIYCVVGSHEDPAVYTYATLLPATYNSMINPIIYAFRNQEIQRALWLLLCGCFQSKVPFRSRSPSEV", "assay": "Activity at GPR6 (unknown origin) expressed in CHOK1 cells assessed as inhibition of constitutive cAMP activity incubated for 45 mins by HTRF based cAMP detection assay", "format": "functional, cell-based, CHO-K1", "units": {"IC50": "nM"}}
{"smiles": "N#Cc1ccc2nc(NCCC(F)(F)F)c(N3CCN(Cc4ccc(F)cc4F)CC3)nc2c1", "IC50": 390}
{"smiles": "COc1ccc(C(=O)C2CCN(c3nc4cnncc4nc3NC(C)C)CC2)c(F)c1", "IC50": 54}
{"smiles": "N#Cc1ccc2nc(NC3CC3)c(N3CCC(Oc4ccc(F)cc4F)CC3)nc2c1", "IC50": 90}
{"smiles": "Fc1ccc(CC2CCN(c3nc4cc(F)c(F)cc4nc3NC3CC3)CC2)c(F)c1", "IC50": 140}
{"smiles": "Clc1ccc(Cl)c(CN2CCN(c3nc4ccccc4nc3Nc3ccccn3)CC2)c1", "IC50": 3290}
{"smiles": "Clc1ccc(Cl)c(CN2CCN(c3nc4ccncc4nc3NC3CC3)CC2)c1", "IC50": 56}
{"smiles": "Fc1ccc(CC2CCN(c3nc4ccncc4nc3NC3CC3)CC2)c(F)c1", "IC50": 27}
{"smiles": "Fc1cc(F)c(CN2CCN(c3nc4ccncc4nc3Nc3cccnc3)CC2)cc1F", "IC50": 400}
{"smiles": "Cc1nccc2nc(NC3CC3)c(N3CCC(C(F)c4ccc(F)cc4F)CC3)nc12", "note": "(stereo unspecified)", "IC50": 9}
{"smiles": "Clc1ccccc1OC1CCN(c2nc3cnccc3nc2NC2CC2)CC1", "IC50": 1510}
{"smiles": "CC(C)Nc1nc2cnccc2nc1N1CCC(Oc2ccc(F)cc2F)CC1", "IC50": 20}
{"smiles": "FC(F)Oc1ccc(Cl)cc1CN1CCN(c2nc3cnccc3nc2NC2CC2)CC1", "IC50": 270}
{"smiles": "COc1ccc(CC2CCN(c3nc4cnncc4nc3NC(C)C)CC2)c(F)c1", "IC50": 15}
{"smiles": "N#Cc1ccc2nc(NC3CC3)c(N3CCN(S(=O)(=O)c4ccc(Br)s4)CC3)nc2c1", "IC50": 420}
{"smiles": "O=C(c1cc(Cl)ccc1Cl)N1CCN(c2nc3ccccc3nc2NC2CC2)CC1", "IC50": 6640}
{"smiles": "N#Cc1cc2nc(NC3CC3)c(N3CCC(Cc4ccc(F)cc4F)CC3)nc2cn1", "IC50": 15}
{"smiles": "N#Cc1cccc2nc(N3CCN(Cc4cc(Cl)ccc4Cl)CC3)c(NC3CC3)nc12", "IC50": 1490}
{"smiles": "N#Cc1ccc2nc(NC3CC3)c(N3CCN(S(=O)(=O)c4ccc(C(F)(F)F)cc4Cl)CC3)nc2c1", "IC50": 1300}
{"smiles": "Cc1ccc(C)c(CN2CCN(c3nc4cnccc4nc3NC3CC3)CC2)c1", "IC50": 380}
{"smiles": "N#Cc1ccc2nc(NCC(F)F)c(N3CCC(Cc4ccc(F)cc4F)CC3)nc2c1", "IC50": 71}
{"smiles": "COc1cc2nc(NC3CC3)c(N3CCC(Cc4ccc(F)cc4F)CC3)nc2cn1", "IC50": 29}
{"smiles": "Cc1nccc2nc(NC3CC3)c(N3CCC(Cc4ccc(F)cc4F)CC3)nc12", "IC50": 2}
{"smiles": "O=C(c1nccc2nc(NC3CC3)c(N3CCC([C@H](F)c4ccc(F)cc4F)CC3)nc12)N1CCOCC1", "IC50": 6}
{"smiles": "N#Cc1ccc2nc(N3CCN(Cc4cc(Cl)ccc4Cl)CC3)c(Nc3cccnc3)nc2c1", "IC50": 440}
{"smiles": "N#Cc1cccc2nc(NC3CC3)c(N3CCN(Cc4cc(Cl)ccc4Cl)CC3)nc12", "IC50": 650}
{"smiles": "Fc1ccc(C(F)C2CCN(c3nc4cnc(Br)cc4nc3NC3CC3)CC2)c(F)c1", "note": "(stereo unspecified)", "IC50": 29}
{"smiles": "CC(C)Nc1nc2ccncc2nc1N1CCC(C(F)c2ccc(F)cc2F)CC1", "note": "(stereo unspecified)", "IC50": 29}
{"smiles": "CC(C)Nc1cc(Cl)cc(C(=O)C2CCN(c3nc4ccc(C#N)cc4nc3NC(C)C)CC2)c1", "IC50": 276}
{"smiles": "N#Cc1cccc(OC2CCN(c3nc4cnccc4nc3NC3CC3)CC2)c1", "IC50": 15400}
{"smiles": "CN(C)C(=O)c1cc2nc(NC3CC3)c(N3CCC([C@@H](F)c4ccc(F)cc4F)CC3)nc2cn1", "IC50": 8}
{"smiles": "N#Cc1cccc(S(=O)(=O)N2CCN(c3nc4cc(C#N)ccc4nc3NC3CC3)CC2)c1", "IC50": 2540}
{"smiles": "Fc1cc(F)c(OC2CCN(c3nc4cnccc4nc3NC3CC3)CC2)c(F)c1", "IC50": 170}
{"smiles": "Cc1cc2nc(NC3CC3)c(N3CCC(Cn4cc(Cl)ccc4=O)CC3)nc2cn1", "IC50": 770}
{"smiles": "COc1ccc2nc(N3CCN(Cc4cc(Cl)ccc4Cl)CC3)c(NC3CC3)nc2c1", "IC50": 3360}
{"smiles": "Clc1ccc(OC2CCN(c3nc4cnccc4nc3NC3CC3)CC2)cc1", "IC50": 310}
{"smiles": "CCOc1ccc(OC2CCN(c3nc4cnccc4nc3NC3CC3)CC2)cc1", "IC50": 1020}
{"smiles": "N#Cc1ccc2nc(NC3CC(=O)C3)c(N3CCN(Cc4cc(Cl)ccc4Cl)CC3)nc2c1", "IC50": 97}
{"smiles": "CC(C)Nc1nc2ccc(C#N)cc2nc1N1CCC(C(F)c2cc(F)ccc2F)CC1", "note": "(stereo unspecified)", "IC50": 98}
{"smiles": "CC(O)c1ccc(OC2CCN(c3nc4cnccc4nc3NC3CC3)CC2)cc1", "note": "(stereo unspecified)", "IC50": 6040}
{"smiles": "N#Cc1ccccc1OC1CCN(c2nc3cnccc3nc2NC2CC2)CC1", "IC50": 2880}
{"smiles": "CC(C)Nc1nc2cc(C(=O)N(C)C)ncc2nc1N1CCC(Oc2ccc(Cl)cc2F)CC1", "IC50": 6}
{"smiles": "COCCNc1nc2ccc(C#N)cc2nc1N1CCC(C(F)c2ccc(F)cc2F)CC1", "note": "(stereo unspecified)", "IC50": 340}
{"smiles": "N#Cc1ccc2nc(NC3CCC3)c(N3CCN(C(=O)c4ccc(Cl)cc4)CC3)nc2c1", "IC50": 300}
{"smiles": "COc1ccccc1C(=O)C1CCN(c2nc3cnccc3nc2NC2CC2)CC1", "IC50": 1920}
{"smiles": "O=C(c1ccc(F)c(F)c1)C1CCN(c2nc3cnccc3nc2NC2CC2)CC1", "IC50": 8390}
{"smiles": "O=C(c1cc2nc(NC3CC3)c(N3CCC([C@@H](F)c4ccc(F)cc4F)CC3)nc2cn1)N1CCC1F", "note": "(stereo partly specified)", "IC50": 26}
{"smiles": "Cc1cc2nc(NC3CC3)c(N3CCC(C(F)c4ccc(F)cc4F)CC3)nc2cn1", "note": "(stereo unspecified)", "IC50": 7}
{"smiles": "N#Cc1ccc2nc(NC3CC3)c(N3CCN(S(=O)(=O)c4ccccc4F)CC3)nc2c1", "IC50": 4590}
{"smiles": "O=C(c1c(F)cccc1Cl)C1CCN(c2nc3cnccc3nc2NC2CC2)CC1", "IC50": 4900}
{"smiles": "Fc1ccc(CN2CCN(c3nc4ccncc4nc3NCC(F)F)CC2)c(F)c1", "IC50": 230}
{"smiles": "N#Cc1ccc2nc(NC3CC3)c(N3CCC(Cn4cc(Cl)ccc4=O)CC3)nc2c1", "IC50": 930}
{"smiles": "N#Cc1ccc2nc(NC3CC3)c(N3CCN(S(=O)(=O)c4cc(C(F)(F)F)ccc4Cl)CC3)nc2c1", "IC50": 1360}
{"smiles": "CC(C)(C)Nc1nc2cc(C#N)ncc2nc1N1CCC(Oc2ccc(F)cc2F)CC1", "IC50": 538}
{"smiles": "COc1ccc(CC2CCN(c3nc4cnc(C#N)cc4nc3NC(C)C)CC2)c(F)c1", "IC50": 26}
{"smiles": "Oc1ccc(OC2CCN(c3nc4ccncc4nc3NC3CC3)CC2)c(F)c1", "IC50": 54}
{"smiles": "COc1ccc(OC2CCN(c3nc4cnccc4nc3NC3CC3)CC2)cc1", "IC50": 190}
{"smiles": "CC(C)Nc1nc2cc(C(=O)N(C)C)ncc2nc1N1CCC(C(=O)c2cc(F)cc(F)c2)CC1", "IC50": 16}
{"smiles": "N#Cc1ccc2nc(NC3CC3)c(N3CCN(Cc4cc(F)ccc4F)CC3)nc2c1", "IC50": 380}
{"smiles": "CC(C)Nc1nc2cc(C(=O)N(C)C)ncc2nc1N1CCN(Cc2ccc(F)cc2F)CC1", "IC50": 40}
{"smiles": "Fc1ccc(CC2CCN(c3nc4ccncc4nc3NCC(F)F)CC2)c(F)c1", "IC50": 78}
{"smiles": "CSc1ccc(F)c(C(=O)C2CCN(c3nc4cnccc4nc3NC3CC3)CC2)c1", "IC50": 478}
{"smiles": "N#Cc1ccc(Cl)c(C(=O)C2CCN(c3nc4cnc(Cl)cc4nc3NC3CC3)CC2)c1", "IC50": 89}
{"smiles": "CC(C)Nc1nc2ccc(C#N)cc2nc1N1CCC([C@@H](F)c2ccc(F)cc2F)CC1", "IC50": 49}
{"smiles": "CC(C)Nc1nc2cnncc2nc1N1CCC([C@@H](F)c2ccc(F)cc2F)CC1", "IC50": 14}
{"smiles": "O=C(c1ccccc1Br)C1CCN(c2nc3cnccc3nc2NC2CC2)CC1", "IC50": 78}
{"smiles": "Clc1ccc(Cl)c(CN2CCN(c3nc4ccccc4nc3Nc3cnccn3)CC2)c1", "IC50": 2340}
{"smiles": "CC[C@@H](C)Nc1nc2cnncc2nc1N1CCC(Oc2ccc(OC)cc2F)CC1", "IC50": 30}
{"smiles": "COc1ccc(CN2CCN(c3nc4cnc(N5CCOCC5)cc4nc3NC3CC3)CC2)c(F)c1", "IC50": 92}
{"smiles": "Fc1ccc(F)c(CN2CCN(c3nc4ccncc4nc3NC3CC3)CC2)c1", "IC50": 140}
{"smiles": "Clc1ccc(Cl)c(CN2CCN(c3nc4cnccc4nc3NC3CC3)CC2)c1", "IC50": 32}
{"smiles": "Cc1cc2nc(NC3CC3)c(N3CCC(Cc4ccc(F)cc4F)CC3)nc2cn1", "IC50": 20}
{"smiles": "CC[C@H](C)Nc1nc2cnncc2nc1N1CCC(Oc2ccc(OC)cc2F)CC1", "IC50": 21}
{"smiles": "COc1ccc(CN2CCN(c3nc4cnc(C(=O)N(C)C)cc4nc3NC3CC3)CC2)c(F)c1", "IC50": 939}
{"smiles": "CC(C)Nc1nc2cc(C#N)ncc2nc1N1CCC(C(=O)c2cc(F)cc(F)c2)CC1", "IC50": 28}
{"smiles": "O=C(c1ccc(C(F)F)cc1)N1CCN(c2nc3cnccc3nc2NC2CC2)CC1", "IC50": 2650}
{"smiles": "N#Cc1ccc(OC2CCN(c3nc4cnccc4nc3NC3CC3)CC2)cc1", "IC50": 1940}
{"smiles": "N#Cc1ccc2nc(NC3CC3)c(N3CCN(S(=O)(=O)c4ccc(Cl)cc4)CC3)nc2c1", "IC50": 570}
{"smiles": "CC(C)Nc1nc2cnncc2nc1N1CCC(Oc2ccc(C#N)cc2F)CC1", "IC50": 72}
{"smiles": "Fc1ccc(OC2CCN(c3nc4ccncc4nc3NC3CCC3)CC2)c(F)c1", "IC50": 14}
{"smiles": "N#Cc1ccc2nc(Nc3cccnc3)c(N3CCC(Cc4ccc(F)cc4F)CC3)nc2c1", "IC50": 390}
{"smiles": "COc1cccc(CN2CCN(c3nc4cnncc4nc3NC(C)C)CC2)c1", "IC50": 44}
{"smiles": "Cc1cc(S(=O)(=O)N2CCN(c3nc4cc(C#N)ccc4nc3NC3CC3)CC2)c(C)cc1Cl", "IC50": 450}
{"smiles": "Cc1ccccc1C(=O)C1CCN(c2nc3cnccc3nc2NC2CC2)CC1", "IC50": 5780}
{"smiles": "Fc1ccc(F)c(OC2CCN(c3nc4cnccc4nc3NC3CC3)CC2)c1", "IC50": 1100}
{"smiles": "O=C(c1cccs1)C1CCN(c2nc3cnccc3nc2NC2CC2)CC1", "IC50": 6750}
{"smiles": "O=C(c1c(F)cc(Cl)cc1F)C1CCN(c2nc3cnccc3nc2NC2CC2)CC1", "IC50": 200}
{"smiles": "N#Cc1ccc(F)c(C(=O)C2CCN(c3nc4cnccc4nc3NC3CC3)CC2)c1", "IC50": 69}
{"smiles": "Cc1cc(C(=O)N2CCN(c3nc4ccccc4nc3NC3CC3)CC2)ccc1Cl", "IC50": 720}
{"smiles": "Clc1ccc(Cl)c(CN2CCN(c3nc4ccccc4nc3Nc3cccnn3)CC2)c1", "IC50": 1670}
{"smiles": "Fc1cnc(Cl)c(CN2CCN(c3nc4ccccc4nc3NC3CC3)CC2)c1", "IC50": 20400}
{"smiles": "COc1ccc(OC2CCN(c3nc4ccncc4nc3NC3CC3)CC2)c(F)c1", "IC50": 44}
{"smiles": "O=C(c1ccc(Cl)c(Cl)c1)N1CCN(c2nc3ccccc3nc2NC2CC2)CC1", "IC50": 79600}
{"smiles": "O=C(c1cccc(Cl)c1)C1CCN(c2nc3cnccc3nc2NC2CC2)CC1", "IC50": 11000}
{"smiles": "CCNc1nc2cnccc2nc1N1CCC(Oc2ccc(OC)cc2F)CC1", "IC50": 39}
{"smiles": "N#Cc1cc2nc(NC3CC3)c(N3CCC([C@H](F)c4ccc(F)cc4F)CC3)nc2cn1", "IC50": 11}
{"smiles": "Fc1ccc(OC2CCN(c3nc4cnncc4nc3NC3CC3)CC2)c(F)c1", "IC50": 18}
{"smiles": "Clc1ccc(Cl)c(CN2CCN(c3nc4cccc(Br)c4nc3NC3CC3)CC2)c1", "IC50": 1640}
{"smiles": "Cc1nnc(Nc2nc3ccccc3nc2N2CCN(Cc3cc(Cl)ccc3Cl)CC2)nc1C", "IC50": 17800}
{"smiles": "N#Cc1ccc2nc(NC3CC3)c(N3CCN(S(=O)(=O)c4ccccc4C#N)CC3)nc2c1", "IC50": 4340}
{"smiles": "Fc1ccc(CC2CCN(c3nc4cc(F)ccc4nc3NC3CC3)CC2)c(F)c1", "IC50": 72}
{"smiles": "N#Cc1ccc2nc(NC3CC3)c(N3CCN(S(=O)(=O)c4ccccc4Br)CC3)nc2c1", "IC50": 1850}
